# In patent US7375180B2, “Methods and compositions related to IRM compounds and Toll-like receptor 8” (3M Innovative Properties Company, priority 2003, dated 2008):
# Biological target: T1, TLR8 (Homo sapiens, UniProt Q9NR97)
# T1 sequence (Q9NR97 27-1041): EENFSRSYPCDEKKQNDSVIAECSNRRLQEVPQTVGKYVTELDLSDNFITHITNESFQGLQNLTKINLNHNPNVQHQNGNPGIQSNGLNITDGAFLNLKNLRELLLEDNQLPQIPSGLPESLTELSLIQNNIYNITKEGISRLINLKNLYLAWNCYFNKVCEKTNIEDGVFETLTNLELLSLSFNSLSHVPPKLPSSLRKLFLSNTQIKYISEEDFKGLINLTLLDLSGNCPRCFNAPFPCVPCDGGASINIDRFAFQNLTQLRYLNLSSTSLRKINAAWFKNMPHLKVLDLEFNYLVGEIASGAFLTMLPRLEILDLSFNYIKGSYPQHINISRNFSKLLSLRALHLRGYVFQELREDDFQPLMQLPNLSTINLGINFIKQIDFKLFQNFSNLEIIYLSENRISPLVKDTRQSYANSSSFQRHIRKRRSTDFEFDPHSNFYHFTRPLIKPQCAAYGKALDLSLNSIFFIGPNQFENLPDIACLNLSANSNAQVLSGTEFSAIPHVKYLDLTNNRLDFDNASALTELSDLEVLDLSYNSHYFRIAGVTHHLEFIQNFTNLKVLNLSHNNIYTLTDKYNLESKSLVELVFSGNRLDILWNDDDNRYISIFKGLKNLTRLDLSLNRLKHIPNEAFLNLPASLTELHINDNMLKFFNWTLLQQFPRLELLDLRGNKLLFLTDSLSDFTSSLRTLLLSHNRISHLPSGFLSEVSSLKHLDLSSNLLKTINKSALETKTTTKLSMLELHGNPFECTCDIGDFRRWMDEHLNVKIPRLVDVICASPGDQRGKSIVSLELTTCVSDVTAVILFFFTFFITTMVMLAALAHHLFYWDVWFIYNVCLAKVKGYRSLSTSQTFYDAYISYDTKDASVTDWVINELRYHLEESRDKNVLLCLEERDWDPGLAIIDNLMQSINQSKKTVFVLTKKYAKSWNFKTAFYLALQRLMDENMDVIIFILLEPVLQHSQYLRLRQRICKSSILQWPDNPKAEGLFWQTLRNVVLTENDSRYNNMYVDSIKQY
# Assay: Dose dependent TLR8-mediated NF-κB-luciferase response in HEK293 cells transfected with TLR8 (Example 5)
# Format: cell-based
# Set-up: expressed in transfected cells; host or cells: HEK293 (ATCC CRL-1573), pIRES vector, G-418 selected, co-transfected with NFkB-luc reporter
# Procedure: Twenty-four hours before transfection, HEK293 cells were adhered to a 10 cm dish (Corning 430167, Corning Inc., Corning, N.Y.) at 37° C., 8% CO2. The cells were co-transfected with (1) pIRES (BD Biosciences Clontech, Palo Alto, Calif.) either (a) unmodified (HEK293-vector) or (b) containing human TLR8 (HEK293-TLR8), and (2) NFkB-luc reporter (Stratagene, La Jolla, Calif.) in a 10:1 ratio with Fugene 6 transfection reagent (Roche Diagnostics Corp., Indianapolis, Ind.) following the manufacturer's instructions. The plates were incubated for 24 hours following transfection and then selected in G-418 (400 μg/mL) for two weeks. The G-418-resistant cells containing either the TLR8 or empty vector were expanded in HEK293 media supplemented with G-418 for stimulation experiments.
# The transfected cells were plated in white opaque 96 well plates (Costar 3917, Corning Inc., Corning, N.Y.) at a concentration of 5×10^4 cells per well in 100 μL of HEK293 media and incubated at 37° C., 8% CO2 for 4 hours. The cells were stimulated with 1 μL of IRM compounds at 1 mM in DMSO (final IRM concentration of 10 μM) or 1 μL DMSO as a control. The plates were then incubated an additional 16 hours at 37° C., 5% CO2. Luminescence was measured on an LMAX luminometer (Molecular Devices Corp., Sunnyvale, Calif.).
# HEK293 cells were transfected as described in Example 1. HEK293 cultures were incubated with IRM compound or a negative control compound (1,5-dihydro-1-(2-methylpropyl)-4H-imidazo[4,5-c]quinolin-4-one, U.S. Pat. No. 4,698,348, Example 71) at concentrations of 0.1 μM, 0.3 μM, 1.0 μM, 3.0 μM, 10 μM, or 30 μM, or a vehicle control. Cultures were otherwise incubated as described in Example 1. Luciferase signals were read in RLU (Relative Luciferase Units) as described in Example 1.
Fold increase over vehicle (0.1 μM) [fold],Fold increase over vehicle (0.3 μM) [fold],Fold increase over vehicle (1.0 μM) [fold],Fold increase over vehicle (3.0 μM) [fold],Fold increase over vehicle (10 μM) [fold],Fold increase over vehicle (30 μM) [fold],Structure (SMILES)
1.2,2.1,4.1,5.8,7.8,9.3,"CCOCc1nc2c(N)nc3cc(-c4cncc(CO)c4)ccc3c2n1CC(C)(C)O [IRM52, 1-{4-amino-2-(ethoxymethyl)-7-[5-(hydroxymethyl)pyridin-3-yl]-1H-imidazo[4,5-c]quinolin-1-yl}-2-methylpropan-2-ol]"
1.2,1.8,5.9,10.0,24.4,27.9,"CCOCc1nc2c(N)nc3cc(-c4ccncc4)ccc3c2n1CC(C)(C)O [IRM56, 1-[4-amino-2-ethoxymethyl-7-(pyridin-4-yl)-1H-imidazo[4,5-c]quinolin-1-yl]-2-methylpropan-2-ol]"
0.7,0.8,0.9,3.2,6.9,7.8,"CCOCc1nc2c(N)nc3cc(-c4cccc(C(=O)N5CCCC5)c4)ccc3c2n1CC(C)(C)O [IRM58, {3-[4-amino-2-ethoxymethyl-1-(2-hydroxy-2-methylpropyl)-1H-imidazo[4,5-c]quinolin-7-yl]phenyl}pyrrolidin-1-ylmethanone]"
0.9,0.6,1.1,1.2,8.2,9.5,"CCOCc1nc2c(N)nc3cc(-c4ccccc4)ccc3c2n1CC1CCNCC1 [IRM48, 2-ethoxymethyl-7-phenyl-1-(piperidin-4-ylmethyl)-1H-imidazo[4,5-c]quinolin-4-amine]"
1.9,3.8,11.9,15.0,21.5,22.4,"CCOCc1nc2c(N)nc3cc(-c4cccnc4)ccc3c2n1CC(C)(C)O [IRM51, 1-[4-amino-2-(ethoxymethyl)-7-(pyridin-3-yl)-1H-imidazo[4,5-c]quinolin-1-yl]-2-methylpropan-2-ol]"
0.9,0.8,1.1,1.7,4.9,12.5,"CCOCc1nc2c(N)nc3ccccc3c2n1CC(C)(C)NC(=O)NC(C)C [IRM47, N-{2-[4-amino-2-(ethoxymethyl)-1H-imidazo[4,5-c]quinolin-1-yl]-1,1-dimethylethyl}-n′-isopropylurea]"

# The next lines start with the compound.
Structure (SMILES),Fold increase over vehicle (0.1 μM) [fold],Fold increase over vehicle (0.3 μM) [fold],Fold increase over vehicle (1.0 μM) [fold],Fold increase over vehicle (3.0 μM) [fold],Fold increase over vehicle (10 μM) [fold],Fold increase over vehicle (30 μM) [fold]
"CCCNC(=O)NC(C)(C)Cn1c(COCC)nc2c(N)nc3ccccc3c21 [IRM55, 1-[2-(4-amino-2-ethoxymethyl-1H-imidazo[4,5-c]quinolin-1-yl)-1,1-dimethylethyl]-3-propylurea]",0.7,1.1,1.0,2.9,7.2,9.9
"CCCCc1nc2c(N)nc3ccccc3c2n1CC(C)(C)CNC(=O)N1CCOCC1 [IRM46, N-[3-(4-amino-2-butyl-1H-imidazo[4,5-c]quinolin-1-yl)-2,2-dimethylpropyl]morpholine-4-carboxamide]",0.9,1.1,1.4,1.7,3.9,7.3
"CCc1nc2c(N)nc3ccccc3c2n1CCS(C)(=O)=O [IRM44, 2-ethyl-1-[2-(methylsulfonyl)ethyl]-1H-imidazo[4,5-c]quinolin-4-amine]",0.9,1.1,1.0,0.9,2.5,12.5
"COCCc1nc2c(N)nc3ccccc3c2n1CCCCNC(=O)c1cnc2ccccc2n1 [IRM38, N-{4-[4-amino-2-(2-methoxyethyl)-1H-imidazo[4,5-c]quinolin-1-yl]butyl}quinoxaline-2-carboxamide]",0.8,0.8,1.3,3.8,6.9,7.8
"CCCCc1nc2c(N)nc3ccccc3c2n1CCS(C)(=O)=O [IRM45, 2-butyl-1-[2-(methylsulfonyl)ethyl]-1H-imidazo[4,5-c]quinolin-4-amine]",1.5,2.5,6.7,12.1,17.0,24.3
"CCCCc1nc2c(N)nc3ccccc3c2n1CCS(=O)(=O)CC [IRM42, 2-butyl-1-[2-(ethylsulfonyl)ethyl]-1H-imidazo[4,5-c]quinolin-4-amine]",1.0,0.9,1.3,3.8,13.2,26.0
"COCCc1nc2c(N)nc3ccccc3c2n1CCCCNC(=O)c1cnc2ccccc2c1 [IRM37, N-{4-[4-amino-2-(2-methoxyethyl)-1H-imidazo[4,5-c]quinolin-1-yl]butyl}quinoline-3-carboxamide]",0.7,0.9,1.0,3.2,5.2,11.8
